# Experimental data: patent US3956328A, “S-triazolo(1,5-a)pyridine derivative” (Kyorin Seiyaku Kabushiki Kaisha, priority 1973, dated 1976)
# Structures can show the parent of a compound that is named as a salt.
# Experiments:
# [1] = Solubility and hygroscopicity of the salt; type: physicochemical
# [2] = system: histamine-induced asthma attack; test: Inhibitory action on histamine-induced asthma attack in guinea pigs; type: in vivo, guinea pig; conditions: for z1 (statistical value): Mann and Whitney U test
# Method: Inhibitory actions on histamine-induced asthma attack: Male guinea pigs, of about 300 g body weight are used. Asthma attack is provoked by an aerosol of 0.2% histamine dihydrochloride solution in physiological saline for 10 minutes. The inhibitory actions are examined by shock grades, No. of collapsed guinea pigs/No. of provoked guinea pigs and survival rate. The tested compounds are orally given 2 hrs. prior to spraying of histamine solution.
# A/B: No. of collapsed guinea pigs/ No. of provoked guinea pigs.
# Statistical comparisons were carried out with the Mann and Whtineys' U
# ddN mice = conditions: cited from earlier work
# [3] = system: guinea pig tracheal chain strips; test: Anti histaminic action: histamine-induced contraction of guinea pig tracheal chain strips; conditions: 4×10^^-5 M; Tyrodes solution
# [4] = system: heterologous PCA in guinea pigs; test: Heterologous passive cutaneous anaphylaxis (PCA) in guinea pigs; type: in vivo, guinea pig; conditions: 25 mg/kg po, 30 min. before challenge; rabbit antiserum to egg albumin
# Method: Male guinea pigs are passively sensitized by the intradermal injection of rabbit antiserum to egg albumin and challenged by the intravenous injection of egg albumin 4 hrs. after the sensitization. The test compounds are orally given 30 min. before the challenge.
# [5] = system: BSA induced asthma in guinea pigs; test: Inhibitory action on BSA-induced (experimentally allergic) asthma attack in passively sensitized guinea pigs; type: in vivo, guinea pig; conditions: for p (statistical significance vs non treatment) / z1 (statistical value vs non treatment): severity; for z1 (statistical value vs non treatment): Mann and Whitney U test
# Method: The present compound is studied on asthma attacks induced by the antigen-antibody reaction in guinea pigs. The guinea pigs are sensitized passively by the injection of 0.1 to 0.3 ml /100g body weight of rabbit antiserum to BSA (bovine serum albumin) into the ear vein. Forty six hours after passive sensitization, the guinea pigs are orally given the tested compounds. Two hours after oral administration, the asthma attack is provoked by an aerosol injection (0.1 ml/min.) of 1% BSA solution in physiological saline into the plastic chamber in which the testing guinea pig is placed. The symptoms of the asthma attack are observed for 10 minutes and scored on the following shock indices. The shock indices are examined by the shock grades, No. of collapsed guinea pigs/No. of used animals and survival rate.
# The shock grades are as follows:
# 1 slight stimulation of expiration
# 2 stimulation of expiration (labored expiration)
# 3 attack of singultation
# 4 the strongest attack of collapse and struggle
# but recovery from collapse within 5 minutes
# 5 recovery from collapse within 5 to 10 minutes
# 6 interruption of expiration to death within 10
# *Statistical comparisons were carried out with the Mann and Whitneys' U
# z1 : The statistical value between non treatment and each tested
# z2 : The statistical value between the present compound and […]
# guinea pig ileum = test: Schultz-Dale reaction in guinea pig ileum sensitized actively with egg albumin; conditions: antigen egg albumin
# Method: Male guinea pigs are actively sensitized and their ileum preparations are treated by Schultz-Dales method (J. Pharmacol. Exp. Ther., 4, 167, 1913). […] These preceeding pharmacological properties of the present compound are due to triazolo [1,5-a]pyridine.
# [6] = antiserum 0.1 ml/100 g, 0.5 mg/kg p.o.
# [7] = antiserum 0.1 ml/100 g, 1.0 mg/kg p.o.
# [8] = antiserum 0.1 ml/100 g, 5.0 mg/kg p.o.
# [9] = antiserum 0.2 ml/100 g, 5 mg/kg p.o.
# [10] = antiserum 0.3 ml/100 g, 5 mg/kg p.o.
structure (smiles),measurement,setting,value
c1ccc(C(c2ccccc2)N2CCN(CCCc3nc4ccccn4n3)CC2)cc1 [dihydrochloride salt],solubility in alcohols,[1]; alcohols,soluble
same,hygroscopicity,[1]; fine needles from ethanol-petroleum ether,hydroscopic
same,solubility in water,[1]; water,soluble
"CN1CCCN(C(c2ccccc2)c2ccc(Cl)cc2)CC1 (stereo not drawn) [homochlorcyclizine, reference compound]",A/B: No. of collapsed / No. of provoked guinea pigs,[2]; 2.50 mg/kg p.o.,5/11
same,"A/B: collapsed guinea pigs, number in parentheses (percentage)",[2]; 2.50 mg/kg p.o.,45.5
same,Survival rate (animals),[2]; 2.50 mg/kg p.o.,11/11
same,"Survival rate, number in parentheses (percentage)",[2]; 2.50 mg/kg p.o.,100
same,z1 (statistical value),[2]; 2.50 mg/kg p.o. vs non treatment 2 (so in the source),> 5
same,significance of difference from non treatment 2 (so in the source),"[2]; 2.50 mg/kg p.o., homochlorcyclizine",markedly significant difference
same,A/B: No. of collapsed / No. of provoked guinea pigs,[2]; 10.0 mg/kg p.o.,1/6
same,"A/B: collapsed guinea pigs, number in parentheses (percentage)",[2]; 10.0 mg/kg p.o.,16.7
same,Survival rate (animals),[2]; 10.0 mg/kg p.o.,6/6
same,"Survival rate, number in parentheses (percentage)",[2]; 10.0 mg/kg p.o.,100
same,z1 (statistical value),[2]; 10.0 mg/kg p.o. vs non treatment 1 (so in the source),3.315
same,p (significant difference from non treatment 1),"[2]; 10.0 mg/kg p.o., homochlorcyclizine",0.0005
same,acute LD50 (reported for standard drug),ddN mice,353 mg/kg
same,inhibitory rate on histamine-induced contraction,[3],74%
same,Inhibition % of extravasation of blue dye,[4],41.7%
same,A/B: No. of collapsed / No. of provoked guinea pigs,[5]; [6],4/6
same,"A/B: collapsed guinea pigs, percentage",[5]; [6],66.7%
same,Survival rate (animals),[5]; [6],5/6
same,"Survival rate, percentage",[5]; [6],83.3%
same,A/B: No. of collapsed / No. of provoked guinea pigs,[5]; [7],6/10
same,"A/B: collapsed guinea pigs, percentage",[5]; [7],60%
same,Survival rate (animals),[5]; [7],10/10
same,"Survival rate, percentage",[5]; [7],100%
same,A/B: No. of collapsed / No. of provoked guinea pigs,[5]; [8],1/6
same,"A/B: collapsed guinea pigs, percentage",[5]; [8],16.7%
same,Survival rate (animals),[5]; [8],6/6
same,"Survival rate, percentage",[5]; [8],100%
same,A/B: No. of collapsed / No. of provoked guinea pigs,[5]; [9],4/6
same,"A/B: collapsed guinea pigs, percentage",[5]; [9],66.7%
same,Survival rate (animals),[5]; [9],6/6
same,"Survival rate, percentage",[5]; [9],100%
same,A/B: No. of collapsed / No. of provoked guinea pigs,[5]; [10],1.5
same,"A/B: collapsed guinea pigs, percentage",[5]; [10],20%
same,Survival rate (animals),[5]; [10],5/5
same,"Survival rate, percentage",[5]; [10],100%
same,p (statistical significance vs non treatment),[5]; [6],< 0.02
same,z1 (statistical value vs non treatment),[5]; [6],2.235
same,p (statistical significance vs non treatment),[5]; [7],< 0.001
same,z1 (statistical value vs non treatment),[5]; [7],3.368
same,p (statistical significance vs non treatment),[5]; [8],< 0.001
same,z1 (statistical value vs non treatment),[5]; [8],3.576
same,p (statistical significance vs non treatment),[5]; [9],< 0.0001
same,z1 (statistical value vs non treatment),[5]; [9],3.993
same,p (statistical significance vs non treatment),[5]; [10],< 0.002
same,z1 (statistical value vs non treatment),[5]; [10],3.23
c1ccc(C(c2ccccc2)N2CCN(CCCc3nc4ccccn4n3)CC2)cc1 [the present compound HCl salt],Inhibition % of Schultz-Dale reaction,guinea pig ileum; 2×10^^-7 M,32.2%
same,Inhibition % of Schultz-Dale reaction,guinea pig ileum; 3×10^^-7 M,55.6%
same,Inhibition % of Schultz-Dale reaction,guinea pig ileum; 5×10^^-7 M,60.1%
